Reference: paper PMC3757248, “Antiestrogen-binding site ligands induce autophagy in myeloma cells that proceeds through alteration of cholesterol metabolism” (Oncotarget, 2013)
Where two headings read alike, the source gives them in different places.

Key:
RPMI 8226 cells [1] = assay: Presence of 5,6-EC in cells by GC/MS; type: cell-based, human; settings: 48 h, 10 μM drug (PBPE 40 μM)
Description: (§1) The organic layer was reduced to dryness under a flux of argon and the residue was resuspended in ethanol. Sterols were analyzed by liquid chromatography and gas-liquid chromatography as described before. Neutral lipids and sphingomyelin analyses were done according to previously published procedures.

LP-1 cells [2] = assay: Presence of 5,6-EC in cells by GC/MS; type: cell-based, human; settings: 48 h, 10 μM drug (PBPE 40 μM)
Description: as §1

HMCLs = assay: Free sterol accumulation in HMCLs; type: cell-based, human
Description: as §1

RPMI 8226 cells [3] = assay: Sterols accumulated in cells, HPLC and GC/MS; type: cell-based, human; settings: RPMI 8226, 48 h incubation
Description: as §1

LP-1 cells [4] = assay: Sterols accumulated in cells, HPLC and GC/MS; type: cell-based, human; settings: LP1, 48 h incubation
Description: as §1

RPMI 8226 and LP-1 cells = assay: Cell viability, MTT assay; type: cell-based, human; settings: for cell death (viable cells, MTT assay): 1 μM LY 294002, 10 nM everolimus, 10 μM RU 39411, 40 μM PBPE; for sensitivity to dexamethasone (MTT assay): 10 μM dexamethasone 24 h, RU 39411 10 μM for 2 h before
Description: RPMI 8226 were obtained from R Bataille (CLCC, Nantes, France) and LP-1 cells from D Bouscary (Institut Cochin, Paris, France). At their arrival, the identity of cells was checked by karyotyping and surface markers expression; cells were then amplified and frozen. HMCLs were maintained in RPMI 1640 medium (Lonza, Basel, Switzerland) supplemented with 2 mM L-glutamine (Lonza) and 10% FCS (fetal calf serum) (PAA Laboratories, Velizy-Villacoublay, France). In experiments with AEs, cells were cultured in phenol red-free medium plus FCS. AEs were dissolved in ethanol (EtOH) to obtain 10 mM stock solution and then diluted into medium immediately before use. For controls, vehicle was added at the same final concentration. Cell viability was determined using CellTiter 96® AQueous One Solution (MTT [([3]-([4],[5])-dimethylthiazol-[2]-yl)-[2],[5]-diphenyltetrazolium bromide] assay, Promega, Charbonnières, France) according to the supplier's instructions.

RPMI 8226 cells [5] = assay: Electron microscopy for MLBs, AVs and UVs; type: cell-based, human; settings: 48 h, 10 μM drug (PBPE 40 μM)
LP-1 cells [6] = assay: Electron microscopy for MLBs, AVs and UVs; type: cell-based, human; settings: 48 h, 10 μM drug (PBPE 40 μM)
ChEH [7] = biological target: T1, ChEH (Homo sapiens, UniProt Q15125+Q9UBM7); assay: ChEH activity measured on intact cells; type: cell-based; design: endogenous in cells; host or cells: LP-1 human multiple myeloma cell lines; settings: LP-1 intact cells, [14C]-5,6-EC 0.6 μM, drugs 1 nM to 10 μM over 24 h; read-out: ChEH IC50
T1 sequence (Q15125 whole entry): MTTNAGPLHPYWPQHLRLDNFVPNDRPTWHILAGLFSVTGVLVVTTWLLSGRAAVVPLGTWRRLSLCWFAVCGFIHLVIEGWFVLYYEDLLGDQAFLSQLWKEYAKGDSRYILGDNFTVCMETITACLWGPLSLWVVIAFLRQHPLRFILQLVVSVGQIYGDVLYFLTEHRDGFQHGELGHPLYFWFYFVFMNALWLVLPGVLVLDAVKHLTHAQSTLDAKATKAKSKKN
T1 sequence (Q9UBM7 whole entry): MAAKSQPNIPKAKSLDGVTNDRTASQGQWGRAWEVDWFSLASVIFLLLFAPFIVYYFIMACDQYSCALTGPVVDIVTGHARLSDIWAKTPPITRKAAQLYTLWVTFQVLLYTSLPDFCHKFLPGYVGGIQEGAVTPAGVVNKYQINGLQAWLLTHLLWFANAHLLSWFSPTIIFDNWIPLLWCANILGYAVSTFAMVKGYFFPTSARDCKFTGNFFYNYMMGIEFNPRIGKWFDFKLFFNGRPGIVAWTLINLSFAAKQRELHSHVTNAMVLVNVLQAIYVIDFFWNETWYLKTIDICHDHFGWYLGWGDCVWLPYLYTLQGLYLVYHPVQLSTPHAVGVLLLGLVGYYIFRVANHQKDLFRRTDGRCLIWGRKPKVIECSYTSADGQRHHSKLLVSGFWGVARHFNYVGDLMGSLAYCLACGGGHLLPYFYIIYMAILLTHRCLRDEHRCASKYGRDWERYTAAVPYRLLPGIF
Description: (§2) Cells were then pelleted and extracted with chloroform/methanol (2/1). The organic layer was reduced to dryness under a flux of argon and the residue was resuspended in EtOH. Samples were applied to thin layer chromatography (TLC) plates and developed using ethyl acetate as previously described. The radioactive metabolites were visualized by autoradiography using Kodak Biomax MS films.

AEBS [8] = biological target: T2, AEBS (Homo sapiens, UniProt Q15125+Q9UBM7); assay: Binding to the AEBS in LP1; design: endogenous in cells; host or cells: LP-1 human multiple myeloma cell lines
T2 sequence (Q15125 whole entry): as the sequence (Q15125 whole entry) above
T2 sequence (Q9UBM7 whole entry): as the sequence (Q9UBM7 whole entry) above

AEBS [9] = biological target: T2, AEBS; assay: Binding to the AEBS in HMCLs; design: endogenous in cells; host or cells: RPMI 8226 and LP-1 human multiple myeloma cell lines
ChEH [10] = biological target: T1, ChEH; assay: ChEH activity measured on intact cells; type: cell-based; design: endogenous in cells; host or cells: RPMI 8226 human multiple myeloma cell lines; settings: RPMI 8226 intact cells, [14C]-5,6-EC 0.6 μM, drugs 1 nM to 10 μM over 24 h; read-out: ChEH IC50
Description: as §2

AEBS [11] = biological target: T2, AEBS; assay: Binding to the AEBS in RPMI 8226
RPMI 8226 = system: RPMI 8226; design: method as in earlier work; settings: cited from earlier work
LP-1 = system: LP-1; design: method as in earlier work; settings: cited from earlier work
NCI-H929 = system: NCI-H929; design: method as in earlier work; settings: cited from earlier work
OPM-2 = system: OPM-2; design: method as in earlier work; settings: cited from earlier work
ChEH [12] = biological target: T1, ChEH; assay: ChEH activity in HMCLs (TLC); type: cell-based; design: endogenous in cells; host or cells: RPMI 8226 and LP-1 human multiple myeloma cell lines; settings: OHT, Tam, RU 58668 10 μM, PBPE 40 μM
Description: as §2

[13] = RPMI 8226, presence of 500 μM Vit E

## CN(C)CCOc1ccc([C@H]2C[C@]3(C)[C@@H](O)CC[C@H]3[C@@H]3CCc4cc(O)ccc4[C@H]32)cc1 [RU 39411, 11β-(4-(2-(dimethylamino)-ethoxy)-phenyl)estra-1,3,5(10)-triene-3,17β-diol]
RPMI 8226 cells [1]; RPMI 8226, absence of Vit E
  5,6-EC: +
RPMI 8226 cells [1]; [13]
  5,6-EC: −
LP-1 cells [2]; LP-1, absence of Vit E
  5,6-EC: +
LP-1 cells [2]; LP-1, presence of 500 μM Vit E
  5,6-EC: −
HMCLs
  free sterol accumulated: accumulation of desmosterol
RPMI 8226 cells [3]
  Desmosterol: 41.5 percent by the weight of total sterol
  Zymostenol: 1.8 percent by the weight of total sterol
LP-1 cells [4]
  Desmosterol: 46.4 percent by the weight of total sterol
  Zymostenol: 1.7 percent by the weight of total sterol
RPMI 8226 and LP-1 cells
  cell death (viable cells, MTT assay): cell death that was strictly caspase-independent
  sensitivity to dexamethasone (MTT assay): restores the sensitivity
RPMI 8226 cells [5]; RPMI 8226, absence of Vit E
  AV: + + (The sign + means that 80 % cells were positive and contained at least 5 vesicles)
  MLB: + + (The sign + means that 80 % cells were positive and contained at least 5 vesicles)
  UV: + (The sign + means that 80 % cells were positive and contained at least 5 vesicles)
RPMI 8226 cells [5]; [13]
  AV: + + (The sign + means that 80 % cells were positive and contained at least 5 vesicles)
  MLB: + + (The sign + means that 80 % cells were positive and contained at least 5 vesicles)
  UV: − (otherwise they were considered as negative (-))
LP-1 cells [6]; LP-1, absence of Vit E
  AV: + + (The sign + means that 80 % cells were positive and contained at least 5 vesicles)
  MLB: + + (The sign + means that 80 % cells were positive and contained at least 5 vesicles)
  UV: + (The sign + means that 80 % cells were positive and contained at least 5 vesicles)
LP-1 cells [6]; LP-1, presence of 500 μM Vit E
  AV: + + (The sign + means that 80 % cells were positive and contained at least 5 vesicles)
  MLB: + + (The sign + means that 80 % cells were positive and contained at least 5 vesicles)
  UV: − (otherwise they were considered as negative (-))
ChEH [7]
  IC50: 727 ± 31 nM
AEBS [8]
  Ki: 27.4 ± 3.1 nM
AEBS [9]
  affinity for the AEBS: high affinity
ChEH [10]
  IC50: 632 ± 22 nM
AEBS [11]
  Ki: 29.4 ± 5.5 nM

## C[C@]12CC[C@@H]3c4ccc(O)cc4C[C@@H](CCCCCCCCC[S+]([O-])CCCC(F)(F)C(F)(F)F)[C@H]3[C@@H]1CC[C@@H]2O (stereo partly shown) [Fulvestrant]
RPMI 8226
  SERM and SERDs effects on MM cell lines: Apoptosis
LP-1
  SERM and SERDs effects on MM cell lines: G1-arrest
NCI-H929
  SERM and SERDs effects on MM cell lines: Apoptosis
OPM-2
  SERM and SERDs effects on MM cell lines: G1-arrest

## CC/C(=C(\c1ccccc1)c1ccc(OCCN(C)C)cc1)c1ccccc1 [Tam, Tamoxifen]
RPMI 8226 cells [1]; RPMI 8226, absence of Vit E
  5,6-EC: +
RPMI 8226 cells [1]; [13]
  5,6-EC: −
LP-1 cells [2]; LP-1, absence of Vit E
  5,6-EC: +
LP-1 cells [2]; LP-1, presence of 500 μM Vit E
  5,6-EC: −
HMCLs
  free sterol accumulated: accumulation zymostenol
RPMI 8226 cells [3]
  Desmosterol: 0.2 percent by the weight of total sterol
  Zymostenol: 35.9 percent by the weight of total sterol
LP-1 cells [4]
  Desmosterol: 0.2 percent by the weight of total sterol
  Zymostenol: 38.2 percent by the weight of total sterol
ChEH [12]
  ChEH activity, conversion of 5,6-EC into CT by TLC: ChEH activity was inhibited
RPMI 8226 cells [5]; RPMI 8226, absence of Vit E
  AV: + + (The sign + means that 80 % cells were positive and contained at least 5 vesicles)
  MLB: + + (The sign + means that 80 % cells were positive and contained at least 5 vesicles)
  UV: + (The sign + means that 80 % cells were positive and contained at least 5 vesicles)
RPMI 8226 cells [5]; [13]
  AV: + + (The sign + means that 80 % cells were positive and contained at least 5 vesicles)
  MLB: + + (The sign + means that 80 % cells were positive and contained at least 5 vesicles)
  UV: − (otherwise they were considered as negative (-))
LP-1 cells [6]; LP-1, absence of Vit E
  AV: + + (The sign + means that 80 % cells were positive and contained at least 5 vesicles)
  MLB: + + (The sign + means that 80 % cells were positive and contained at least 5 vesicles)
  UV: + (The sign + means that 80 % cells were positive and contained at least 5 vesicles)
LP-1 cells [6]; LP-1, presence of 500 μM Vit E
  AV: + + (The sign + means that 80 % cells were positive and contained at least 5 vesicles)
  MLB: + + (The sign + means that 80 % cells were positive and contained at least 5 vesicles)
  UV: − (otherwise they were considered as negative (-))
AEBS [9]
  affinity for the AEBS: high affinity

## O=c1cc(N2CCOCC2)oc2c(-c3ccccc3)cccc12 [LY 294002]
RPMI 8226 and LP-1 cells
  cell death (viable cells, MTT assay): induced cell death

## CO[C@H]1C[C@@H]2CC[C@@H](C)[C@@](O)(O2)C(=O)C(=O)N2CCCC[C@H]2C(=O)O[C@H]([C@H](C)C[C@@H]2CC[C@@H](OCCO)[C@H](OC)C2)CC(=O)[C@H](C)/C=C(\C)[C@@H](O)[C@@H](OC)C(=O)[C@H](C)C[C@H](C)/C=C/C=C/C=C/1C [everolimus]
RPMI 8226 and LP-1 cells
  cell death (viable cells, MTT assay): induced cell death

## C[C@@H]1C[C@H]2[C@@H]3CCC4=CC(=O)C=C[C@]4(C)[C@@]3(F)[C@@H](O)C[C@]2(C)[C@@]1(O)C(=O)CO [dexamethasone]
RPMI 8226 and LP-1 cells
  sensitivity to dexamethasone (MTT assay): resistant
